Measured values reported in PubChem BioAssay AID248 (DTP/NCI, 2004).
Where “and” joins values, the source holds several entries; their conditions need not be identical. Equal entries are not always repeated. Inconclusive results and toxic doses are left out. Rule as the data show it: active = T/C of 150% or more; inactive = T/C below 125%.

Test system: L1210 leukemia ip in BDF1 mice, survival T/C
Test: NCI In Vivo Anticancer Drug Screen. Data for tumor model L1210 Leukemia (intraperitoneal) in B6D2F1 (BDF1) mice
Settings: endpoint: mean survival time, higher = longer survival
Outline: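 Each compound was tested against a transplantable tumor grown in mice. The endpoint was survival, with treated animals benchmarked against vehicle controls as a simple ratio.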

[1] = dose: 75.0 mg/kg/injection, schedule: Q01DX001 (ip), vehicle: saline
[2] = dose: 100.0 mg/kg/injection, schedule: Q01DX001 (ip), vehicle: Klucel (hydroxypropylcellulose) (HPC)
[3] = dose: 100.0 mg/kg/injection, schedule: Q04DX002 (ip), vehicle: Klucel (hydroxypropylcellulose) (HPC)
[4] = dose: 200.0 mg/kg/injection, schedule: Q04DX002 (ip), vehicle: Klucel (hydroxypropylcellulose) (HPC)
[5] = dose: 400.0 mg/kg/injection, schedule: Q04DX002 (ip), vehicle: Klucel (hydroxypropylcellulose) (HPC)
[6] = dose: 100.0 mg/kg/injection, schedule: Q01DX009 (ip), vehicle: gum acacia
[7] = dose: 200.0 mg/kg/injection, schedule: Q01DX009 (ip), vehicle: gum acacia
[8] = dose: 50.0 mg/kg/injection, schedule: Q01DX009 (ip), vehicle: Klucel (hydroxypropylcellulose) (HPC)
[9] = dose: 100.0 mg/kg/injection, schedule: Q01DX009 (ip), vehicle: Klucel (hydroxypropylcellulose) (HPC)
[10] = dose: 100.0 mg/kg/injection, schedule: Q04DX003 (ip), vehicle: Klucel (hydroxypropylcellulose) (HPC)
[11] = dose: 200.0 mg/kg/injection, schedule: Q01DX009 (ip), vehicle: Klucel (hydroxypropylcellulose) (HPC)
[12] = dose: 200.0 mg/kg/injection, schedule: Q04DX003 (ip), vehicle: Klucel (hydroxypropylcellulose) (HPC)
[13] = dose: 400.0 mg/kg/injection, schedule: Q04DX003 (ip), vehicle: Klucel (hydroxypropylcellulose) (HPC)
[14] = dose: 400.0 mg/kg/injection, schedule: Q01DX009 (ip), vehicle: Klucel (hydroxypropylcellulose) (HPC)

Measured: T/C

OCC1OC(n2nnc3c(=S)nc[nH]c32)C(O)C1O (stereo not drawn)
inactive: dose: 3.3 mg/kg/injection, schedule: Q01DX009 (ip), vehicle: saline 101 % of control | dose: 5.0 mg/kg/injection, schedule: Q01DX009 (ip), vehicle: saline 95 % of control | dose: 7.5 mg/kg/injection, schedule: Q01DX009 (ip), vehicle: saline 94 % of control | dose: 11.25 mg/kg/injection, schedule: Q01DX009 (ip), vehicle: saline 101 % of control | dose: 15.0 mg/kg/injection, schedule: Q01DX001 (ip), vehicle: saline 96 % of control | dose: 18.0 mg/kg/injection, schedule: Q01DX009 (ip), vehicle: saline 106 % of control | dose: 25.0 mg/kg/injection, schedule: Q01DX001 (ip), vehicle: saline 98 % of control and 100 % of control | dose: 27.0 mg/kg/injection, schedule: Q01DX009 (ip), vehicle: saline 101 % of control | dose: 38.0 mg/kg/injection, schedule: Q01DX001 (ip), vehicle: saline 94 % of control | [1] 102 % of control | dose: 100.0 mg/kg/injection, schedule: Q01DX001 (ip), vehicle: saline 94 % of control and 98 % of control and 106 % of control | dose: 200.0 mg/kg/injection, schedule: Q01DX001 (ip), vehicle: saline 110 % of control

OCCOc1c(Cl)c(C(Cl)(Cl)Cl)nc2ccccc12
inactive: dose: 25.0 mg/kg/injection, schedule: Q01DX001 (ip), vehicle: Klucel (hydroxypropylcellulose) (HPC) 103 % of control | dose: 50.0 mg/kg/injection, schedule: Q01DX001 (ip), vehicle: Klucel (hydroxypropylcellulose) (HPC) 106 % of control | [2] 106 % of control

O=c1[nH]c2c(c(=O)[nH]1)CCCCC2
inactive: [3] 95 % of control | [4] 89 % of control | [5] 92 % of control

Oc1ccccc1C=NCCCN=Cc1ccccc1O
inactive: [6] 104 % of control | dose: 100.0 mg/kg/injection, schedule: Q04DX003 (ip), vehicle: gum acacia 98 % of control | [7] 101 % of control | dose: 200.0 mg/kg/injection, schedule: Q04DX003 (ip), vehicle: gum acacia 95 % of control | dose: 400.0 mg/kg/injection, schedule: Q01DX009 (ip), vehicle: gum acacia 101 % of control | dose: 400.0 mg/kg/injection, schedule: Q04DX003 (ip), vehicle: gum acacia 98 % of control

Cc1ccc(S(=O)(=O)ON=C2c3ccccc3-c3ccccc32)cc1
inactive: dose: 25.0 mg/kg/injection, schedule: Q01DX009 (ip), vehicle: Klucel (hydroxypropylcellulose) (HPC) 96 % of control | [8] 96 % of control | [2] 101 % of control | [9] 100 % of control | [10] 98 % of control | dose: 200.0 mg/kg/injection, schedule: Q01DX001 (ip), vehicle: Klucel (hydroxypropylcellulose) (HPC) 99 % of control | [11] 88 % of control and 91 % of control | [12] 93 % of control | dose: 400.0 mg/kg/injection, schedule: Q01DX001 (ip), vehicle: Klucel (hydroxypropylcellulose) (HPC) 105 % of control | [13] 103 % of control

O=C(CNC(=O)Nc1nccs1)N/N=C/c1cccc([N+](=O)[O-])c1
inactive: [9] 97 % of control | [11] 100 % of control and 90 % of control | [14] 97 % of control

O=C(/C=C(/C(=C/C(=O)c1ccccc1)c1ccccc1)c1ccccc1)c1ccccc1
inactive: [8] 102 % of control | [9] 94 % of control | [11] 87 % of control

C/C(C(=O)O)=C(/Cl)c1c(C)cc(C)c(Br)c1C
inactive: dose: 100.0 mg/kg/injection, schedule: Q01DX001 (ip), vehicle: gum acacia 89 % of control | [6] 108 % of control | dose: 200.0 mg/kg/injection, schedule: Q01DX001 (ip), vehicle: gum acacia 93 % of control | [7] 105 % of control | dose: 400.0 mg/kg/injection, schedule: Q01DX001 (ip), vehicle: gum acacia 91 % of control

CC(=O)Nc1ccc(S(=O)(=O)N(C)Cc2ccccc2)cc1
inactive: [9] 94 % of control | [11] 102 % of control | [14] 107 % of control

Oc1c(Cl)cc(C(c2cc(Cl)c(O)c(Cl)c2)C(c2cc(Cl)c(O)c(Cl)c2)c2cc(Cl)c(O)c(Cl)c2)cc1Cl
inactive: dose: 100.0 mg/kg/injection, schedule: Q04DX003 (ip), vehicle: saline 101 % of control | dose: 200.0 mg/kg/injection, schedule: Q04DX003 (ip), vehicle: saline 96 % of control | dose: 400.0 mg/kg/injection, schedule: Q04DX003 (ip), vehicle: saline 103 % of control

CCCCOB(CI)OCCCC
inactive: dose: 6.25 mg/kg/injection, schedule: Q01DX009 (ip), vehicle: saline sonified 96 % of control | dose: 6.25 mg/kg/injection, schedule: Q04DX003 (ip), vehicle: saline sonified 94 % of control | dose: 12.5 mg/kg/injection, schedule: Q01DX009 (ip), vehicle: saline sonified 100 % of control | dose: 12.5 mg/kg/injection, schedule: Q04DX003 (ip), vehicle: saline sonified 92 % of control | dose: 25.0 mg/kg/injection, schedule: Q01DX009 (ip), vehicle: saline sonified 104 % of control | dose: 25.0 mg/kg/injection, schedule: Q04DX003 (ip), vehicle: saline sonified 105 % of control

CC(=O)NS(=O)(=O)c1ccc(C)cc1
inactive: dose: 100.0 mg/kg/injection, schedule: Q04DX003 (ip), vehicle: acetone 115 % of control | dose: 200.0 mg/kg/injection, schedule: Q04DX003 (ip), vehicle: acetone 108 % of control | dose: 400.0 mg/kg/injection, schedule: Q04DX003 (ip), vehicle: acetone 97 % of control

COc1c(-c2cc(C)nc(NC#N)n2)c(O)c(OC)c2occc12
inactive: [3] 109 % of control | [4] 98 % of control | [5] 98 % of control

Nc1nc2ncc(CNc3ccc(C(=O)NC(CCC(=O)O)C(=O)O)cc3)nc2c(=O)[nH]1 (stereo not drawn)
inactive: dose: 1.6 mg/kg/injection, schedule: Q01DX009 (ip), vehicle: saline with Tween-80 93 % of control and 98 % of control | dose: 3.2 mg/kg/injection, schedule: Q01DX009 (ip), vehicle: saline with Tween-80 101 % of control and 109 % of control | dose: 6.3 mg/kg/injection, schedule: Q01DX009 (ip), vehicle: saline with Tween-80 93 % of control and 94 % of control | dose: 6.95 mg/kg/injection, schedule: Q01DX Z (ip), vehicle: carboxymethylcellulose (CMC) 96 % of control | dose: 12.5 mg/kg/injection, schedule: Q01DX009 (ip), vehicle: saline with Tween-80 101 % of control and 102 % of control | dose: 12.5 mg/kg/injection, schedule: Q04DX002 (ip), vehicle: saline with Tween-80 97 % of control and 100 % of control | dose: 13.9 mg/kg/injection, schedule: Q01DX Z (ip), vehicle: carboxymethylcellulose (CMC) 103 % of control | dose: 25.0 mg/kg/injection, schedule: Q01DX009 (ip), vehicle: saline with Tween-80 93 % of control and 100 % of control | dose: 25.0 mg/kg/injection, schedule: Q04DX002 (ip), vehicle: saline with Tween-80 97 % of control and 91 % of control | dose: 27.8 mg/kg/injection, schedule: Q01DX Z (ip), vehicle: carboxymethylcellulose (CMC) 101 % of control | dose: 50.0 mg/kg/injection, schedule: Q01DX009 (ip), vehicle: saline with Tween-80 98 % of control and 111 % of control | dose: 50.0 mg/kg/injection, schedule: Q04DX002 (ip), vehicle: saline with Tween-80 99 % of control and 100 % of control | dose: 55.6 mg/kg/injection, schedule: Q01DX Z (ip), vehicle: carboxymethylcellulose (CMC) 97 % of control | dose: 100.0 mg/kg/injection, schedule: Q04DX002 (ip), vehicle: saline with Tween-80 99 % of control and 102 % of control | dose: 200.0 mg/kg/injection, schedule: Q04DX002 (ip), vehicle: saline with Tween-80 103 % of control

CCCC/C=C(/C)C1(CC)C(=O)NC(=O)NC1=O
inactive: [1] 100 % of control and 98 % of control | dose: 150.0 mg/kg/injection, schedule: Q01DX001 (ip), vehicle: saline 93 % of control and 102 % of control

CCOC(=O)C(C)C(OCC)OCC (stereo not drawn)
inactive: [9] 96 % of control | [10] 90 % of control | [11] 104 % of control | [12] 103 % of control | [14] 89 % of control | [13] 107 % of control

O=C(O)c1ccc(N=Cc2ccccc2O)cc1.[Co]
inactive: dose: 100.0 mg/kg/injection, schedule: Q01DX001 (ip), vehicle: other 96 % of control | dose: 200.0 mg/kg/injection, schedule: Q01DX001 (ip), vehicle: other 112 % of control
